Measured values taken from US4868181A, “1,4-dihydropyridine derivatives with calcium agonist and alpha1 -antagonist activity” (E. I. Du Pont de Nemours and Company, priority 1987, dated 1989).

Assays:
alpha1 -adrenoceptors = experiment: [^3 H]-prazosin binding assay (affinity for alpha1-adrenoceptors); conditions: rat brain membranes, 0.2 nM [^3 H]-prazosin, 60 minutes at 25°
Method: The [^3 H]-prazosin binding assay was carried out according to the method described by Timmermans, P. B. M. W. M., Schoop, A. M. C., and Van Zwieten, P. A.: Biochem Pharmacol., 31, 899-905, 1982 (1). The reaction mixture contained partially purified rat brain membranes (source of alpha1 -adrenoceptors), 0.2 nM [^3 H]-prazosin with or without potential displacer in Tris buffer. The mixture was incubated for 60 minutes at 25° and subsequently terminated by rapid filtration through glass fiber-filter. Receptor-bound [^3 H]-prazosin trapped in the filter was quantitated by scintillation counting. The inhibitory concentration (IC50) of potential displacer which gives 50% displacement of the total specifically bound [^3 H]-prazosin is presented as a measure of the affinity of such compound for the alpha1 -adrenoceptor.

Ca^2 + channels = biological target: T1, Ca^2 + channels (Rattus norvegicus, UniProt P22002); experiment: [^3 H]-Nitrendipine binding assay (affinity for calcium channels); conditions: rat cardiac microsomes, 0.5 nM [^3 H]-nitrendipine, 60 minutes at 25°
T1 construct: rat cardiac microsomes (source of Ca^2 + channels); from tissue; host or cells: rat cardiac microsomes
T1 sequence (P22002 whole entry, other chains not shown): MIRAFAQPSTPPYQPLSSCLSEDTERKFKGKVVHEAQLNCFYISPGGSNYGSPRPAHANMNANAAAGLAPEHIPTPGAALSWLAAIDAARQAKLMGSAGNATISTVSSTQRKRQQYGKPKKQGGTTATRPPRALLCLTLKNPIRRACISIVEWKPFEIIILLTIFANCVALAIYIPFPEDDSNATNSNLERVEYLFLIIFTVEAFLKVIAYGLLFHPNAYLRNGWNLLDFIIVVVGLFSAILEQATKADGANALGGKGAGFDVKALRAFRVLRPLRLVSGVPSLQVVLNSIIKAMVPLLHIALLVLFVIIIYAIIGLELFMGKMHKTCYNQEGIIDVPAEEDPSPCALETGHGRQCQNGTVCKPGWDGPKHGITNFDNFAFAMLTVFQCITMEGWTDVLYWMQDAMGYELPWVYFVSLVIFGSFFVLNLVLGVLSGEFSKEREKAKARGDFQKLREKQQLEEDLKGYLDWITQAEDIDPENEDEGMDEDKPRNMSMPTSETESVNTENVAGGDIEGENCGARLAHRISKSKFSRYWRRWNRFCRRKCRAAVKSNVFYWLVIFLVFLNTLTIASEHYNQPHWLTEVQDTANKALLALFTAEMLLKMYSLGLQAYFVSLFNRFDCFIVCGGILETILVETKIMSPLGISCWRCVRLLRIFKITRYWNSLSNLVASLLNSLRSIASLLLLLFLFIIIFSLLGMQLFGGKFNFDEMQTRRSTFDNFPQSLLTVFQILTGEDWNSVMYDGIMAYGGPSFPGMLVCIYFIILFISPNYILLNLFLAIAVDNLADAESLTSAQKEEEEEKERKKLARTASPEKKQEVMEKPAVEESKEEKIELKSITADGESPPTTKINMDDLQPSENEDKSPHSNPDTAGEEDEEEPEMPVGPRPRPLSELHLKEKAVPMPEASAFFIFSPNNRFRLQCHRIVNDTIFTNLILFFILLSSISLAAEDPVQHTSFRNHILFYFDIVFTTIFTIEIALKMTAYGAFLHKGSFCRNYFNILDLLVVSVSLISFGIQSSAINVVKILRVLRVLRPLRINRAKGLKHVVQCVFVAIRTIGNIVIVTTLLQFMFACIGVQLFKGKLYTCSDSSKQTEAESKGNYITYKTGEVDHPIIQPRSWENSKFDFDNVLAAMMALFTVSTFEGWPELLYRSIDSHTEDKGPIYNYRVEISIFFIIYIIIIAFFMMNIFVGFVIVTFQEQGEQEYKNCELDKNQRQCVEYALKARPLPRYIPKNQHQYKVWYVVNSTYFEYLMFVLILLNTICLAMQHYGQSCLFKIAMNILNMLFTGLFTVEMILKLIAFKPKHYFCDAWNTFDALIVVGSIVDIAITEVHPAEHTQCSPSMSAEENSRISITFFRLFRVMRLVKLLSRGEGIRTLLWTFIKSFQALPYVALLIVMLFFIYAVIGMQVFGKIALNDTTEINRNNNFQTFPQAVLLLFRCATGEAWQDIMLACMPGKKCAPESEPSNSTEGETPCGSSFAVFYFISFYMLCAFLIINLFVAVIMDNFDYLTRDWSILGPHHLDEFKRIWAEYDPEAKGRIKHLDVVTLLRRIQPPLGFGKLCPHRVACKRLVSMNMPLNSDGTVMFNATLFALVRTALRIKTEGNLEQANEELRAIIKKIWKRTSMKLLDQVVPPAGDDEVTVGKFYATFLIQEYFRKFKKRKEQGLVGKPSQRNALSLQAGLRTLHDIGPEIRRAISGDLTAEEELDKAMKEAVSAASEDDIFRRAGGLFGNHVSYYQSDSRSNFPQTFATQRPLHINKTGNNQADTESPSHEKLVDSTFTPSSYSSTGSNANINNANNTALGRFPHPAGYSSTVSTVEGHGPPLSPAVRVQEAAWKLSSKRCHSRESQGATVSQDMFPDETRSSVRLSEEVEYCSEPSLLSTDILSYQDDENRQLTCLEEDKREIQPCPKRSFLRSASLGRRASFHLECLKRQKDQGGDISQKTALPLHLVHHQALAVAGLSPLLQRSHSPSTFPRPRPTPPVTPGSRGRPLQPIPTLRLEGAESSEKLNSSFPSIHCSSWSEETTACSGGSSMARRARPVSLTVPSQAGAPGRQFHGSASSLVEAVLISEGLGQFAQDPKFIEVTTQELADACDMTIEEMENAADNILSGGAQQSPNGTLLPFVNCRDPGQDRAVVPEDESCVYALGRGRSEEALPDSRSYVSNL
T1 sequence (P54290 25-944 partner limits assumed, other chains not shown): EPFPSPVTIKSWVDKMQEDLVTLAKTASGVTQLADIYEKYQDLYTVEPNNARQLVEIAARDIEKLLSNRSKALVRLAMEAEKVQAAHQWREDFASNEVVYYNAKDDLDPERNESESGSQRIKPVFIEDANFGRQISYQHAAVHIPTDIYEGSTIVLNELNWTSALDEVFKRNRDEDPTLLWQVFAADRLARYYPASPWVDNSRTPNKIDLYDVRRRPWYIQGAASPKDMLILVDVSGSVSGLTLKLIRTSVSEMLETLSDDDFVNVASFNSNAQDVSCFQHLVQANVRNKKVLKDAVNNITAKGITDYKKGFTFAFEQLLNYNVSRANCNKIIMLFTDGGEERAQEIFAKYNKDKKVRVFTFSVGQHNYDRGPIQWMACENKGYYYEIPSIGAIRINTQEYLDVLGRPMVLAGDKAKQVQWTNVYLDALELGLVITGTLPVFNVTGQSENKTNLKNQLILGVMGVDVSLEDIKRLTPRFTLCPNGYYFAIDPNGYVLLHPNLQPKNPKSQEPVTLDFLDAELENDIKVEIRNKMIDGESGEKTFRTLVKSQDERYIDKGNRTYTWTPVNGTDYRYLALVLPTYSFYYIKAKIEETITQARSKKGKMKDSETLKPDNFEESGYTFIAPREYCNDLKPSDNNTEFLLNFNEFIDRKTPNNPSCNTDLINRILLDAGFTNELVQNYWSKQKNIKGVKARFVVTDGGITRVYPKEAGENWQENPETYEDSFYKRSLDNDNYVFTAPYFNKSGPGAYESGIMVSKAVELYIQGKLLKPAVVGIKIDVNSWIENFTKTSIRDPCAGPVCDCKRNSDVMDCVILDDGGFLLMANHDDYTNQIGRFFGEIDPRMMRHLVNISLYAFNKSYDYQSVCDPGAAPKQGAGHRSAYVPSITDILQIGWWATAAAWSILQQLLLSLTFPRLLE
T1 sequence (P54290 945-1091 partner limits assumed, other chains not shown): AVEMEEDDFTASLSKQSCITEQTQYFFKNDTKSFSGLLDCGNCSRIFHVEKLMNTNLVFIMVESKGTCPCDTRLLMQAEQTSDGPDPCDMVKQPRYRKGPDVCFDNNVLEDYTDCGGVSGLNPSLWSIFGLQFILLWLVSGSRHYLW
Method: [^3 H]-Nitrendipine binding assay was carried out according to the method described by G. T. Bolger, et al., Biochem. Biophys. Res. Comm., 104, 1604-1609, 1982 (1). The reaction mixture contained rat cardiac microsomes (source of Ca^2 + channels), 0.5 nM [^3 H]-nitrendipinewith or without potential displacer in Tris buffer. The mixture was incubated for 60 minutes at 25° and subsequently terminated by rapid filtration through a glass fiber-filter. Membrane-bound [^3 H]-nitrendipine trapped in the filter was quantitated by scintillation counting. The inhibitory concentration (IC50) of potential displacer which gives 50% displacement of the total specifically bound [^3 H]-nitrendipine is presented as a measure of the affinity of such compound for the Ca^2 + channel.

guinea pig left atria = experiment: Positive inotropic effect in guinea pig left atria; conditions: 37°; for EC50: left atria paced at 2Hz, cumulative addition to maximum 10^-4, read-out: EC50 (concentration that increases DT by 50% above the control DT); for Intrinsic Activity (ratio of the maximum effect of the test compound to that of Bay K 8644): relative to Bay K 8644, left atria paced at 2Hz
Method: Guinea pigs are killed by cervical dislocation. The left atria are removed and mounted at 1 gm resting tension in tissue baths containing oxygenated Krebs bicarbonate solution which is kept at 37°. The left atria are electrically paced at 2Hz with square wave pulses of 1 msec duration. The voltage is set at 1.5× threshold level.
After a one hour equilibration period, control values for developed tension (DT, gm) are recorded. Test compounds are then added to the baths, in a cumulative manner to a maximum concentration of 10^-4, to obtain a concentration-response curve. Treatment values of DT are obtained after the rug effect has reached a plateau and the exposure time for each concentration is 5-8 minutes. Percent change of the treatment value from the control value is calculated at each concentration of the test compound.

IC50 (alpha1 -adrenoceptors) [nM] | IC50 (Ca^2 + channels) [nM] | EC50 (guinea pig left atria) [nM] | Compound | Intrinsic Activity (ratio of the maximum effect of the test compound to that of Bay K 8644) (guinea pig left atria) [%]
1200 | 18000 |  | COC(=O)C1=C(C)NC(C)=C([N+](=O)[O-])C1c1cccc(OCCCN2CCN(c3ncccn3)CC2)c1 (stereo not shown) [Example 124] | 
48 | 2900 | > 100000 | COC(=O)C1=C(C)NC(C)=C([N+](=O)[O-])C1c1cccc(OC)c1OCCN1CCN(c2ccccc2OC)CC1 (stereo not shown) [Example 87] | 0
350 | 190 |  | COC(=O)C1=C(C)NC(C)=C([N+](=O)[O-])C1c1cc(Cl)ccc1OCCCCN1CCN(c2ccccc2OC)CC1 (stereo not shown) [Example 143] | 
570 | 3300 | > 100000 | COC(=O)C1=C(C)NC(C)=C([N+](=O)[O-])C1c1cccc(OCCCCCN2CCN(c3ccccc3OC)CC2)c1 (stereo not shown) [Example 113] | 0
310 | 1300 |  | C=CCc1cccc(C2C(C(=O)OC)=C(C)NC(C)=C2[N+](=O)[O-])c1OCCCCN1CCN(c2ccccc2OC)CC1 (stereo not shown) [Example 144] | 
490 | 800 |  | COC(=O)C1=C(C)NC(C)=C([N+](=O)[O-])C1c1ccccc1OCC=CCN1CCN(c2ccccc2OC)CC1 (stereo not shown) [Example 119] | 
970 | 990 |  | COc1ccccc1N1CCN(CCCCOC(=O)C2=C(C)NC(C)=C([N+](=O)[O-])C2c2cccc(C(F)(F)F)c2)CC1 (stereo not shown) [Example 57] | 
> 10000 | > 10000 |  | COC(=O)C1=C(C)NC(C)=C([N+](=O)[O-])C1c1cccc(OCC2OC2CN2CCN(c3ccccc3OC)CC2)c1 (stereo not shown) [Example 136] | 
1100 | 67 | > 100000 | COC(=O)C1=C(C)NC(C)=C([N+](=O)[O-])C1c1ccccc1OCCCCCCCCCCN1CCN(c2ccccc2OC)CC1 (stereo not shown) [Example 61, 1,4-dihydro-2,6-dimethyl-4[2(10-(4-(2-methoxyphenyl)-piperazinyl)decyloxy)phenyl]-5-nitro-methyl ester-3-pyridinecarboxylic acid] | 10
260 | 4800 | 2000 | COC(=O)C1=C(C)NC(C)=C([N+](=O)[O-])C1c1ccccc1OCCCN1CCN(c2ccccc2OC)CC1 (stereo not shown) [Example 88] | 50
150 | 3600 |  | COC(=O)C1=C(C)NC(C)=C([N+](=O)[O-])C1c1cccc(OCCCN2CCN(c3ccccc3C)CC2)c1 (stereo not shown) [Example 131] | 
8200 | 3000 |  | COC(=O)C1=C(C)NC(C)=C([N+](=O)[O-])C1c1cccc(OC)c1OCC=CCN1CCN(c2ncccn2)CC1 (stereo not shown) [Example 121] | 
750 | 420 |  | COc1ccccc1N1CCN(CCCCOc2ccccc2C2C(C(=O)OC(C)C)=C(C)NC(C)=C2[N+](=O)[O-])CC1 (stereo not shown) [Example 133] | 
340 | 8400 |  | COc1ccccc1N1CCN(CCCOc2ccccc2C2C(C(=O)OC(C)C)=C(C)NC(C)=C2[N+](=O)[O-])CC1 (stereo not shown) [Example 134] | 
8600 | 200 |  | COC(=O)C1=C(C)NC(C)=C([N+](=O)[O-])C1c1ccccc1OCCCN1CCN(c2ccccc2C(F)(F)F)CC1 (stereo not shown) [Example 104] | 
830 | 630 |  | COC(=O)C1=C(C)NC(C)=C([N+](=O)[O-])C1c1cc(Cl)cc(Cl)c1OCCCCCN1CCN(c2ccccc2OC)CC1 (stereo not shown) [Example 141] | 

IC50 (alpha1 -adrenoceptors) [nM] | IC50 (Ca^2 + channels) [nM] | EC50 (guinea pig left atria) [nM] | Compound | Intrinsic Activity (ratio of the maximum effect of the test compound to that of Bay K 8644) (guinea pig left atria) [%]
850 | 540 |  | COC(=O)C1=C(C)NC(C)=C([N+](=O)[O-])C1c1ccccc1OCCCCN1CCN(c2ccccc2C)CC1 (stereo not shown) [Example 118] | 
990 | 470 |  | COc1ccccc1N1CCN(CCCCOc2ccccc2C2C(C(=O)OC(C)(C)C)=C(C)NC(C)=C2[N+](=O)[O-])CC1 (stereo not shown) [Example 146] | 
230 | > 10000 |  | COc1ccccc1N1CCN(CCCOc2cccc(C3C(C(=O)Nc4ccccc4)=C(C)NC(C)=C3[N+](=O)[O-])c2)CC1 (stereo not shown) [Example 122] | 
2600 | 250 |  | COC(=O)C1=C(C)NC(C)=C([N+](=O)[O-])C1c1ccccc1OCCCCCN1CCN(c2ncccn2)CC1 (stereo not shown) [Example 155] | 
9300 | 1400 |  | COC(=O)C1=C(C)NC(C)=C([N+](=O)[O-])C1c1ccccc1OCCN1CCN(c2ncccn2)CC1 (stereo not shown) [Example 154] | 
120 | 880 |  | COC(=O)C1=C(C)NC(C)=C([N+](=O)[O-])C1c1cc(OC)ccc1OCCCCCN1CCN(c2ccccc2OC)CC1 (stereo not shown) [Example 153] | 
430 | 6700 |  | COC(=O)C1=C(C)NC(C)=C([N+](=O)[O-])C1c1ccc(OCCCN2CCN(c3ccccc3OC)CC2)cc1 (stereo not shown) [Example 135] | 
130 | 110000 |  | COc1ccccc1N1CCN(CCCCOc2ccccc2C2C(C(=O)Nc3ccccc3)=C(C)NC(C)=C2[N+](=O)[O-])CC1 (stereo not shown) [Example 115] | 
130 | 2300 |  | COC(=O)C1=C(C)NC(C)=C([N+](=O)[O-])C1c1cccc(OCCCN2CCN(c3ccccc3Cl)CC2)c1 (stereo not shown) [Example 132] | 
960 |  | 27000 | COc1ccccc1N1CCN(CCOC(=O)C2=C(C)NC(C)=C([N+](=O)[O-])C2c2cccc(C(F)(F)F)c2)CC1 (stereo not shown) [Example 1, 1,4-Dihydro-2,6-dimethyl-5-nitro-4-[3-(trifluoromethyl)phenyl]-[2-[4-(2-methoxyphenyl)-1-piperazinyl]ethyl]ester-3-pyridinecarboxylic acid] | 30
270 | 690 |  | COC(=O)C1=C(C)NC(C)=C([N+](=O)[O-])C1c1cc(OC)ccc1OCCCCN1CCN(c2ccccc2OC)CC1 (stereo not shown) [Example 152] | 
2700 | 2000 |  | COC(=O)C1=C(C)NC(C)=C([N+](=O)[O-])C1c1cccc(OCC#CCN2CCN(c3ccccc3OC)CC2)c1 (stereo not shown) [Example 127] | 
630 | 180 |  | COC(=O)C1=C(C)NC(C)=C([N+](=O)[O-])C1c1cc(Cl)ccc1OCCCCCN1CCN(c2ccccc2OC)CC1 (stereo not shown) [Example 145] | 
100 | 5700 |  | COC(=O)C1=C(C)NC(C)=C([N+](=O)[O-])C1c1cccc(OCCCN2CCN(c3ccccn3)CC2)c1 (stereo not shown) [Example 128] | 
290 | 5000 |  | CCOC(=O)C1=C(C)NC(C)=C([N+](=O)[O-])C1c1cccc(OCCCN2CCN(c3ccccn3)CC2)c1 (stereo not shown) [Example 126] | 

Compound | IC50 (alpha1 -adrenoceptors) [nM] | IC50 (Ca^2 + channels) [nM] | EC50 (guinea pig left atria) [nM] | Intrinsic Activity (ratio of the maximum effect of the test compound to that of Bay K 8644) (guinea pig left atria) [%]
COC(=O)C1=C(C)NC(C)=C([N+](=O)[O-])C1c1cccc([N+](=O)[O-])c1OCCCCCN1CCN(c2ccccc2OC)CC1 (stereo not shown) [Example 140] | 180 | 160 | > 100000 | 0
COC(=O)C1=C(C)NC(C)=C([N+](=O)[O-])C1c1cccc([N+](=O)[O-])c1OCCCN1CCN(c2ccccc2OC)CC1 (stereo not shown) [Example 139] | 140 | 120 | > 100000 | 0
COC(=O)C1=C(C)NC(C)=C([N+](=O)[O-])C1c1cccc(OCCCCN2CCN(c3ccccc3OC)CC2)c1[N+](=O)[O-] (stereo not shown) [Example 150] | 220 | 4000 |  | 
COC(=O)C1=C(C)NC(C)=C([N+](=O)[O-])C1c1cccc(OCCCCCN2CCN(c3ccccc3OC)CC2)c1[N+](=O)[O-] (stereo not shown) [Example 151] | 200 | 4700 |  | 
COC(=O)C1=C(C)NC(C)=C([N+](=O)[O-])C1c1cc([N+](=O)[O-])ccc1OCCCCN1CCN(c2ccccc2OC)CC1 (stereo not shown) [Example 138] | 280 | 220 |  | 
COC(=O)C1=C(C)NC(C)=C([N+](=O)[O-])C1c1ccc(OCCCN2CCN(c3ccccc3OC)CC2)c([N+](=O)[O-])c1 (stereo not shown) [Example 137] | 440 | 6100 |  | 
COC(=O)C1=C(C)NC(C)=C([N+](=O)[O-])C1c1cccc(OCCCN2CCN(c3ccccc3OC)CC2)c1[N+](=O)[O-] (stereo not shown) [Example 149] | 290 | 8900 |  | 
COC(=O)C1=C(C)NC(C)=C([N+](=O)[O-])C1c1cc(OCCN2CCN(c3ccccc3OC)CC2)ccc1[N+](=O)[O-] (stereo not shown) [Example 68] | 590 | 16000 |  | 
